Measured values from US10253039B2, “Inhibitors of bacterial DNA gyrase with efficacy against gram-negative bacteria” (priority 2014, dated 2019).
In brackets after ≈: the same amount, converted by molar mass. Like-named read-outs stand apart in the source and are kept apart here.

What was measured:
Type in all cases: cell-based
E. coli BW25113 = assay: MIC, microdilution in 96-well plates; details: Escherichia coli, read-out: MIC
In short: (§1)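 First, a 1:10000 inoculum of each strain was made in Luria-Bertani medium from a growing subculture. Next, the compound was added and diluted 2-fold down the plate in three replicate columns, with DMSO in a fourth. Finally, plates were shaken at 37° C. for 16-18 hours and scored visually.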

Edwardsiella tarda = assay: MIC, microdilution in 96-well plates
In short: as §1

[1] = test system: Staphylococcus epidermidis; assay: MIC, 20-strain panel
In short: as §1

[2] = test system: Staphylococcus aureus subsp. aureus; assay: MIC, 20-strain panel; details: read-out: MIC
In short: as §1

Streptococcus pyogenes = assay: MIC, 20-strain panel
In short: as §1

E. coli JW5503 (deltolC) = assay: MIC, 20-strain panel; details: Escherichia coli
In short: as §1

[3] = test system: Salmonella enterica subsp. enterica typhimurium; assay: MIC, 20-strain panel
In short: as §1

E. coli MG1655 = assay: MIC, 20-strain panel; details: Escherichia coli, read-out: MIC
In short: as §1

Streptococcus agalactiae = assay: MIC, 20-strain panel
In short: as §1

[4] = test system: Klebsiella pneumoniae subsp. pneumoniae; assay: MIC, 20-strain panel
In short: as §1

Shigella flexneri = assay: MIC, 20-strain panel
In short: as §1

[5] = test system: Staphylococcus saprophyticus subsp. saprophyticus; assay: MIC, 20-strain panel
In short: as §1

[6] = H: Staphylococcus aureus subsp. aureus
[7] = F: Salmonella enterica subsp. enterica Typhimurium
[8] = E: Klebsiella pneumoniae subsp. pneumoniae
[9] = Staphylococcus aureus subsp. aureus
[10] = Salmonella enterica subsp. enterica Typhimurium
[11] = Klebsiella pneumoniae subsp. pneumoniae

Row | Compound | MIC (E. coli BW25113; BW25113, B: E. coli BW25113) [µg/mL] | MIC (Edwardsiella tarda; D: Edwardsiella tarda) [µg/mL] | MIC [1] [µg/mL] | MIC [2, 6] [µg/mL] | MIC (Streptococcus pyogenes) [µg/mL] | MIC (E. coli JW5503 (deltolC); C: E. coli JW5503 (deltolC)) [µg/mL] | MIC [3, 7] [µg/mL] | MIC (E. coli MG1655; MG1655, A: E. coli MG1655) [µg/mL] | MIC (Streptococcus agalactiae) [µg/mL] | MIC [4, 8] [µg/mL] | MIC (Shigella flexneri; G: Shigella flexneri) [µg/mL] | MIC [5] [µg/mL] | MIC (E. coli BW25113; BW25113, E. coli BW25113) [µg/mL] | MIC (Edwardsiella tarda) [µg/mL] | MIC [2, 9] [µg/mL] | MIC (E. coli JW5503 (deltolC); E. coli JW5503 (deltolC)) [µg/mL] | MIC [3, 10] [µg/mL] | MIC (E. coli MG1655; MG1655, E. coli MG1655) [µg/mL] | MIC [4, 11] [µg/mL] | MIC (Shigella flexneri) [µg/mL]
1 | O=S(=O)(N[C@@H]1CCN(Cc2ccc(-c3ccccc3)cc2)C1)c1cc(C(F)(F)F)ccc1Cl [Compound 47] | > 8 | > 8 | ~8 (≈ 16.2 µM) | > 8 | ~8 (≈ 16.2 µM) | 1 (≈ 2.02 µM) | ~8 (≈ 16.2 µM) | > 8 | > 8 | > 8 | > 8 | > 8 | – | – | – | – | – | – | – | –
2 | O=S(=O)(N[C@@H]1CCN(Cc2ccc(OC(F)F)cc2)C1)c1cccc(OC(F)(F)F)c1 [Compound 106] | > 8 | > 8 | > 8 | > 8 | > 8 | > 8 | > 8 | > 8 | > 8 | > 8 | > 8 | > 8 | – | – | – | – | – | – | – | –
3 | O=S(=O)(N[C@@H]1CCN(Cc2ccc(OC(F)(F)F)cc2)C1)c1cccc(OC(F)(F)F)c1 [Compound 51] | > 8 | > 8 | > 8 | > 8 | > 8 | 4 (≈ 8.26 µM) | > 8 | > 8 | > 8 | > 8 | > 8 | > 8 | – | – | – | – | – | – | – | –
4 | N#Cc1cccc(S(=O)(=O)N[C@@H]2CCN(Cc3ccc(OC4CCC4)cc3)C2)c1 [Compound 109] | > 8 | > 8 | > 8 | > 8 | > 8 | 0.5 (≈ 1.21 µM) | 8 (≈ 19.4 µM) | > 8 | > 8 | > 8 | > 8 | > 8 | – | – | – | – | – | – | – | –
5 | CC(=O)c1cccc(S(=O)(=O)N[C@@H]2CCN(Cc3ccc(OC4CC4)cc3)C2)c1 [Compound 134] | – | – | > 8 | – | > 8 | – | – | – | > 8 | – | – | > 8 | > 8 | > 8 | > 8 | 4 (≈ 9.65 µM) | ~8 (≈ 19.3 µM) | > 8 | > 8 | > 8
6 | O=S(=O)(N[C@@H]1CCN(Cc2ccc(-c3ccccc3)cc2)C1)c1cc(Cl)cc(C(F)(F)F)c1 [Compound 110] | > 8 | > 8 | 4 (≈ 8.08 µM) | > 8 | 8 (≈ 16.2 µM) | > 8 | > 8 | > 8 | > 8 | > 8 | > 8 | > 8 | – | – | – | – | – | – | – | –
7 | O=S(=O)(N[C@@H]1CCN(Cc2ccc(-n3ccnn3)cc2)C1)c1cccc(C(F)(F)F)c1 [Compound 3] | > 8 | > 8 | > 8 | > 8 | > 8 | 4 (≈ 8.86 µM) | > 8 | > 8 | > 8 | > 8 | > 8 | > 8 | – | – | – | – | – | – | – | –
8 | O=S(=O)(N[C@@H]1CCN(Cc2ccc(-c3ccccc3)cc2)C1)c1cncc(F)c1 [Compound 147] | – | – | > 8 | – | > 8 | – | – | – | > 8 | – | – | > 8 | > 8 | > 8 | > 8 | 8 (≈ 19.4 µM) | > 8 | > 8 | > 8 | > 8
9 | CSc1ccc(CN2CC[C@@H](NS(=O)(=O)c3cccc(OC(F)(F)F)c3)C2)cc1 [Compound 176] | – | – | > 8 | – | > 8 | – | – | – | > 8 | – | – | > 8 | > 8 | > 8 | > 8 | 8 (≈ 17.9 µM) | > 8 | > 8 | > 8 | > 8
10 | COc1ccccc1-c1ccc(CN2CC[C@@H](NS(=O)(=O)c3cccc(OC(F)(F)F)c3)C2)cc1 [Compound 76] | > 8 | > 8 | > 8 | > 8 | > 8 | 8 (≈ 15.8 µM) | > 8 | > 8 | > 8 | > 8 | > 8 | > 8 | – | – | – | – | – | – | – | –
11 | N#Cc1cccc(S(=O)(=O)N[C@@H]2CCN(Cc3ccc(OC4CCOCC4)cc3)C2)c1 [Compound 54] | > 8 | > 8 | > 8 | > 8 | > 8 | 2 (≈ 4.53 µM) | 8 (≈ 18.1 µM) | > 8 | > 8 | > 8 | > 8 | > 8 | – | – | – | – | – | – | – | –
12 | CC(C)(C)Oc1ccc(CN2CC[C@@H](NS(=O)(=O)c3cccc(C#N)c3)C2)cc1 [Compound 13] | > 8 | > 8 | > 8 | > 8 | > 8 | 8 (≈ 19.3 µM) | > 8 | > 8 | > 8 | > 8 | > 8 | > 8 | – | – | – | – | – | – | – | –
13 | CC(C)(C)Oc1ccc(CN2CC[C@@H](NS(=O)(=O)c3cccc(OC(F)(F)F)c3)C2)cc1 [Compound 26] | > 8 | > 8 | > 8 | > 8 | > 8 | 0.5 (≈ 1.06 µM) | > 8 | > 8 | > 8 | > 8 | > 8 | > 8 | – | – | – | – | – | – | – | –
14 | O=S(=O)(N[C@@H]1CCN(Cc2ccc(OC3CC3)cc2)C1)c1cc(Cl)cc(C(F)(F)F)c1 [Compound 94] | > 8 | > 8 | > 8 | > 8 | > 8 | 8 (≈ 16.8 µM) | > 8 | > 8 | > 8 | > 8 | > 8 | > 8 | – | – | – | – | – | – | – | –
15 | O=S(=O)(N[C@@H]1CCN(Cc2cn(-c3ccccc3)nn2)C1)c1cccc(OC(F)(F)F)c1 [Compound 129] | – | – | > 8 | – | > 8 | – | – | – | > 8 | – | – | > 8 | > 8 | > 8 | > 8 | > 8 | > 8 | > 8 | > 8 | > 8
